Measurements: patent US20160201075A1, “REGULATOR OF ALGAL LIPID METABOLISM AND CELLULAR […] ITS APPLICATIONS” (Board of Trustees of Michigan State University, priority 2014, published 2016)

Test system: C. reinhardtii
Test: Growth in medium with 1 μM Rapamycin (time needed for division)
Type: cell-based, Chlamydomonas reinhardtii
Settings: saturating concentration of Rapamycin (1 μM)
Description: FIGS. 3A-3D illustrates the growth of cht7—expressing cells affected by different treatments. FIG. 3A graphically illustrates growth of cht7 and parental (dw15) lines on nitrogen-replete medium (optical density (OD) at 550 nm). Doubling times are given in parentheses. The grey bar indicates the OD at which nitrogen-replete samples were taken for all experiments in this study. Averages of three biological replicates are given with standard deviations for all points being smaller than 3%. FIG. 3B graphically illustrates growth of dw15, cht7, and four independent complementation lines (C1-4) during nitrogen deprivation (−N) followed by nitrogen resupply (+N) measured at the times indicted. Insert, cultures at 24 h following nitrogen resupply. FIG. 3C graphically illustrates growth during phosphate deprivation (−P) followed by phosphate resupply (+P). FIG. 3D graphically illustrates growth in the medium with 1 μM Rapamycin (+R) followed by the removal of Rapamycin (−R). Cultures were diluted twice (a) with medium containing 1 μM Rapamycin to avoid reaching stationary phase.
Growth under different nitrogen and phosphate regimes and following Rapamycin treatment, plating and viability assays, as well as lipid assays were performed using established methods.
Growth of the cht7 mutant was normal in nitrogen-replete medium under standard conditions (FIG. 3A). […]

`CO[C@H]1C[C@@H]2CC[C@@H](C)[C@@](O)(O2)C(=O)C(=O)N2CCCC[C@H]2C(=O)O[C@H]([C@H](C)C[C@@H]2CC[C@@H](O)[C@H](OC)C2)CC(=O)[C@H](C)/C=C(\C)[C@@H](O)[C@@H](OC)C(=O)[C@H](C)C[C@H](C)/C=C/C=C/C=C/1C` [Rapamycin] was tested, and the “time needed for division” value (cht7 mutant) was 30.1 h and the “time needed for division” value (parental line (dw15)) was 23.9 h.
